Structures are written as SMILES.

A short description of series [1]: Bioavailability assay in rats, Experiment IV (dimethylsulfonate). It is filed as in vivo. An excerpt: Experiment IV Bioavailability Assay for N-[4-(3-chloro-4-fluorophenylamino)-7-(2-methoxyethoxy)quinazolin-6-yl]-2-[1-(2-methoxyethyl)piperidin-4-ylidene]acetamide Dimethylsulfonate in Rats
12 SD rats (half of them were male and half of them were female, 7-10 weeks old, weighting 200-350 g) were purchased from Beijing Vital River Laboratory Animal Technology Co., Ltd., and reared in Animal House, GLP Center, Taiping Road No. 27 courtyard. Production License Number of Beijing Vital River Laboratory Animal Technology Co., Ltd. is SCXK (Beijing) 2009-0002.
Blood (about 0.5 ml) was drawn with glass capillary from the orbital venous plexus at […], 1 h, 2 h, 3 h, 4 h, 6 h, 8 h, 12 h, and 24 h after dosing to each group of animals according to the administration scheme, and put into a heparinized centrifuge tube. The tube was gently shaken up and down, then centrifuged at 3000 r/min for […] at 4° C. The plasma was separated. 50 μl of the plasma was pipetted into a centrifuge tube (5 ml), then 50% methanol aqueous solution (50 μl ) and thienorphine-D4 isotope (50 μl) as an internal standard were added thereto and vortexed. A solution of methanol:acetonitrile=1:3 (volume ratio) was added, vortexed for 30 s so as to mix thoroughly. The resulting mixture was centrifuged at 3000 r/min for 5 mM 500 μL of the supernatant was taken out, to which 500 μl of 20% methanol solution was added for serial dilution. The mixture was vortexed for 30 s so as to mix thoroughly. The mixture was centrifuged at 13000 r/min for 5 mM, and […], of the supernatant was injected for LC/MS/MS assay.
Liquid phase conditions: A: aqueous solution (5 mmol/L ammonium acetate, 0.2% formic acid), B: methanol; column temperature 25° C.; injection volume: 10 μL; gradient elution.
MS conditions: ion source: Turbo Ionspray (ESI+); detection mode: MRM; electrical parameters: compound 1: m/z 544.2-457.1, CE (collision energy): 36.5.
The main pharmacokinetic parameters and oral bioavailability results were calculated by using DAS2.0 (statistical moment).
The pharmacokinetic parameters of statistical moments (n=6) for a single intravenous injection of 5.0 mg/kg in rats
The pharmacokinetic parameters of statistical moments (n=6) for a single intragastric administration of 5.0 mg/kg in rats
Method for the calculation of bioavailability: F=(AUCig×Div)/(AUCiv×Dig)×100%
wherein D is dose; AUC: the area under the plasma drug concentration-time curve; ig represents intragastric administration; and iv represents intravenous injection administration.

Series [2] concerns human pancreatic cancer cell line AsPC-1. Description: In vitro inhibitory action on human tumor cells, AsPC-1 (MTT). It is filed as cell-based. To be noted: ASPC1, 72 h, MTT assay, usually 3 days. The procedure:
(§1) Human epidermoid carcinoma cell line A431, human non-small cell lung cancer cell line HCC827, head and neck cancer cell lines Fadu and human pancreatic cancer cell line AsPC-1 were purchased from Cell Bank, Chinese Academy of Sciences.
(§2) 3.2 Cell culture method: cells were cultured in the complete medium at 37° C. under 5% CO2 and saturated humidity until logarithmic growth phase, i.e., adherent cells substantially approach complete confluence, and then collected for subsequent assay. For the adherent cells, they were firstly digested with trypsin/EDTA to detach.
(§3) 3.3 A certain number of cells were seeded into 96-well cell culture plates (hereinafter referred to as 96-well plates). […] Finally, total cellular protein in the wells was determined using SRB assay, or cell viability was determined with MTT assay.
(§4) 3.3.1 The cell seeding concentration was determined by cell growth curve assay which completely simulates compound inhibition assay process. […]
(§5) 3.4 Dilution and addition of compounds: the concentration of DMSO that can be tolerant by the cells was determined by DMSO tolerance assay, and thereby selecting the dilution and addition methods of compounds. The effects of different concentrations of DMSO on cell growth were determined by DMSO tolerance assay. […] Two methods are finally determined as follows. […]

Series [3] relates to human head and neck cancer cell lines Fadu. Description: In vitro inhibitory action on human tumor cells, Fadu (MTT). The series is classed as cell-based. To be noted: 72 h, MTT assay, usually 3 days. On the procedure: as §1, §2, §3, §4, §5
Where [4] appears, read: SD rats, single intragastric administration of 5.0 mg/kg, n=6.
Setting [5] is: SD rats, single intravenous injection of 5.0 mg/kg, n=6.
Setting [6] is: both sexes, rat, plasma, po, SD rats, single intragastric administration of 5.0 mg/kg, n=6.
[7] abbreviates: both sexes, rat, plasma, SD rats, single intravenous injection of 5.0 mg/kg, n=6.

For `COCCOc1cc2ncnc(Nc3ccc(F)c(Cl)c3)c2cc1NC(=O)C=C1CCN(CCOC)CC1.CS(=O)(=O)O` [Compound 3, N-[4-(3-chloro-4-fluorophenylamino)-7-(2-methoxyethoxy)quinazolin-6-yl]-2-[1-(2-methoxyethyl)piperidin-4-ylidene]acetamide dimethylsulfonate], in series [1] (SD rats, 5 mg/kg ig vs 5 mg/kg iv), the “F (bioavailability)” value came out at 57%. Besides, in series [1] (setting [4]), the CLz/F was 75.8 mL/min/kg and the t½z came out at 5.83 h. In series [1] (setting [5]), this molecule gave a CLz of 43.8 mL/min/kg and a t½z of 4.06 h. Further, in series [1] (both sexes, SD, rat, plasma, oral, 5 mg/kg, 5 mg/kg ig vs 5 mg/kg iv, read-out: F (bioavailability)), the bioavailability worked out at 56.9%. Besides, in series [1] (setting [6]), the area under the curve AUC(0-inf) worked out at 902 ng·h/mL, the AUC(0-t) is 782 ng·h/mL, the highest level (Cmax) was 75.2 ng/mL and the Tmax came out at 3.33 h. The Vd/F in series [1] (both sexes, rat, plasma, po, SD rats, single intragastric administration of 5.0 mg/kg, n=6, read-out: Vz/F) turned out to be 36.9 L/kg. In addition, in series [1] (setting [7]), the AUC(0-inf) came to 1460 ng·h/mL, the AUC(0-t) is 1370 ng·h/mL, the Cmax was 1220 ng/mL and the Tmax was determined as 0.02 h. In series [1] (both sexes, rat, plasma, SD rats, single intravenous injection of 5.0 mg/kg, n=6, read-out: Vz), the Vd stood at 15.2 L/kg. Besides, the IC50 in series [2] was determined as 4300 nM. Also, in series [3], the IC50 worked out at 132 nM.

For the origin of these results see US9840494B2, “Quinazoline derivative” (Tianjin Hemay Oncology Pharmaceutical Co., Ltd., priority 2013, dated 2017).
